According to ChEMBL document CHEMBL5505970 (J Med Chem, 2024):
Active and inactive are the calls of the source. No cut-off for these calls is given here.

Columns and labels:
[1] = target: Serine-protein kinase ATM (Homo sapiens, UniProt Q13315); experiment: Inhibition of ATM in human Jurkat cell lysates at 0.3 uM in presence of biotinylated ADP by KiNativ profiling based mass spectrometry; format: subcellular
[2] = Toxicity in NOD-SCID mouse xenografted with human Granta-519 cells assessed as early stage erythroblasts in bone marrow at 10 mg/kg, po qd for 3 days and measured at 4 days after treatment cessation by flow cytometry; format: organism-based; details: in vivo, 72 h, time 3 day
[3] = Clearance in monkey hepatocytes at 1 uM in presence of NADPH by ESI/LC-MS/MS analysis; format: ADME, cell-based, Macaca mulatta, Hepatocyte; details: rhesus monkey
[4] = Toxicity in BALB/c mouse assessed as decrease in proportion of reticulocytes in bone marrow at 10 mg/kg, po qd for 3 days; format: organism-based; details: in vivo, 72 h, time 3 day
Granta-519 = experiment: Antitumor activity against human Granta-519 cells xenografted in NOD-SCID mouse assessed as reduction in tumor volume at 5 mg/kg, po qd for 3 days co-administered with PARP inhibitor, niraparib; format: functional, organism-based; details: time 3.0 day
[5] = Toxicity in BALB/c mouse assessed as late stage erythroblasts in bone marrow at 10 mg/kg, po qd for 3 days and measured at 1 day after treatment discontinuation by flow cytometry; format: organism-based; details: in vivo, 72 h, time 3 day
[6] = Toxicity in NOD-SCID mouse xenografted with human Granta-519 cells assessed as circulating reticulocytes at 30 mg/kg, po qd for 3 days and 4 days off treatment and measured on day 14; format: organism-based; details: in vivo, 72 h, time 3 day
[7] = Clearance in rat liver microsomes at 1 uM in presence of NADPH by ESI/LC-MS/MS analysis; format: ADME, Microsome; details: read-out: CLH
[8] = Toxicity in BALB/c mouse assessed as increase in proportion of red blood cells in bone marrow at 10 mg/kg, po qd for 3 days; format: organism-based; details: in vivo, 72 h, time 3 day
[9] = Toxicity in NOD-SCID mouse xenografted with human Granta-519 cells assessed as changes in body weight at 10 mg/kg, po qd for 7 days; format: organism-based; details: in vivo, 168 h, time 7 day
[10] = Toxicity in NOD-SCID mouse xenografted with human Granta-519 cells assessed as late stage erythroblasts in bone marrow at 10 mg/kg, po qd for 3 days co-administered with PARP inhibitor, niraparib and measured at 4 days after treatment cessation by flow cytometry; format: organism-based; details: in vivo, 72 h, time 3 day
[11] = Clearance in human hepatocytes at 1 uM measured per million cells by ESI/LC-MS/MS analysis; format: ADME, cell-based, Hepatocyte; details: read-out: CLH
[12] = Toxicity in BALB/c mouse assessed as red blood cells in bone marrow at 10 mg/kg, po qd for 3 days and measured at 4 days after treatment discontinuation; format: organism-based; details: in vivo, 72 h, time 3 day
[13] = Toxicity in NOD-SCID mouse xenografted with human Granta-519 cells assessed as late stage erythroblasts at 30 mg/kg, po qd for 3 days and measured at 2 days after treatment discontinuation by flow cytometry; format: organism-based; details: in vivo, 72 h, time 3 day
[14] = Toxicity in NOD-SCID mouse xenografted with human Granta-519 cells assessed as early stage erythroblasts in bone marrow at 10 mg/kg, po qd for 3 days co-administered with PARP inhibitor, niraparib and measured at 2 days after treatment cessation by flow cytometry; format: organism-based; details: in vivo, 72 h, time 3 day
[15] = target: DNA-dependent protein kinase catalytic subunit (Homo sapiens, UniProt P78527); experiment: Inhibition of DNA-PK in human Jurkat cell lysates at 0.3 uM in presence of biotinylated ADP by KiNativ profiling based mass spectrometry; format: subcellular
Sequence of DNA-dependent protein kinase catalytic subunit (P78527 whole entry): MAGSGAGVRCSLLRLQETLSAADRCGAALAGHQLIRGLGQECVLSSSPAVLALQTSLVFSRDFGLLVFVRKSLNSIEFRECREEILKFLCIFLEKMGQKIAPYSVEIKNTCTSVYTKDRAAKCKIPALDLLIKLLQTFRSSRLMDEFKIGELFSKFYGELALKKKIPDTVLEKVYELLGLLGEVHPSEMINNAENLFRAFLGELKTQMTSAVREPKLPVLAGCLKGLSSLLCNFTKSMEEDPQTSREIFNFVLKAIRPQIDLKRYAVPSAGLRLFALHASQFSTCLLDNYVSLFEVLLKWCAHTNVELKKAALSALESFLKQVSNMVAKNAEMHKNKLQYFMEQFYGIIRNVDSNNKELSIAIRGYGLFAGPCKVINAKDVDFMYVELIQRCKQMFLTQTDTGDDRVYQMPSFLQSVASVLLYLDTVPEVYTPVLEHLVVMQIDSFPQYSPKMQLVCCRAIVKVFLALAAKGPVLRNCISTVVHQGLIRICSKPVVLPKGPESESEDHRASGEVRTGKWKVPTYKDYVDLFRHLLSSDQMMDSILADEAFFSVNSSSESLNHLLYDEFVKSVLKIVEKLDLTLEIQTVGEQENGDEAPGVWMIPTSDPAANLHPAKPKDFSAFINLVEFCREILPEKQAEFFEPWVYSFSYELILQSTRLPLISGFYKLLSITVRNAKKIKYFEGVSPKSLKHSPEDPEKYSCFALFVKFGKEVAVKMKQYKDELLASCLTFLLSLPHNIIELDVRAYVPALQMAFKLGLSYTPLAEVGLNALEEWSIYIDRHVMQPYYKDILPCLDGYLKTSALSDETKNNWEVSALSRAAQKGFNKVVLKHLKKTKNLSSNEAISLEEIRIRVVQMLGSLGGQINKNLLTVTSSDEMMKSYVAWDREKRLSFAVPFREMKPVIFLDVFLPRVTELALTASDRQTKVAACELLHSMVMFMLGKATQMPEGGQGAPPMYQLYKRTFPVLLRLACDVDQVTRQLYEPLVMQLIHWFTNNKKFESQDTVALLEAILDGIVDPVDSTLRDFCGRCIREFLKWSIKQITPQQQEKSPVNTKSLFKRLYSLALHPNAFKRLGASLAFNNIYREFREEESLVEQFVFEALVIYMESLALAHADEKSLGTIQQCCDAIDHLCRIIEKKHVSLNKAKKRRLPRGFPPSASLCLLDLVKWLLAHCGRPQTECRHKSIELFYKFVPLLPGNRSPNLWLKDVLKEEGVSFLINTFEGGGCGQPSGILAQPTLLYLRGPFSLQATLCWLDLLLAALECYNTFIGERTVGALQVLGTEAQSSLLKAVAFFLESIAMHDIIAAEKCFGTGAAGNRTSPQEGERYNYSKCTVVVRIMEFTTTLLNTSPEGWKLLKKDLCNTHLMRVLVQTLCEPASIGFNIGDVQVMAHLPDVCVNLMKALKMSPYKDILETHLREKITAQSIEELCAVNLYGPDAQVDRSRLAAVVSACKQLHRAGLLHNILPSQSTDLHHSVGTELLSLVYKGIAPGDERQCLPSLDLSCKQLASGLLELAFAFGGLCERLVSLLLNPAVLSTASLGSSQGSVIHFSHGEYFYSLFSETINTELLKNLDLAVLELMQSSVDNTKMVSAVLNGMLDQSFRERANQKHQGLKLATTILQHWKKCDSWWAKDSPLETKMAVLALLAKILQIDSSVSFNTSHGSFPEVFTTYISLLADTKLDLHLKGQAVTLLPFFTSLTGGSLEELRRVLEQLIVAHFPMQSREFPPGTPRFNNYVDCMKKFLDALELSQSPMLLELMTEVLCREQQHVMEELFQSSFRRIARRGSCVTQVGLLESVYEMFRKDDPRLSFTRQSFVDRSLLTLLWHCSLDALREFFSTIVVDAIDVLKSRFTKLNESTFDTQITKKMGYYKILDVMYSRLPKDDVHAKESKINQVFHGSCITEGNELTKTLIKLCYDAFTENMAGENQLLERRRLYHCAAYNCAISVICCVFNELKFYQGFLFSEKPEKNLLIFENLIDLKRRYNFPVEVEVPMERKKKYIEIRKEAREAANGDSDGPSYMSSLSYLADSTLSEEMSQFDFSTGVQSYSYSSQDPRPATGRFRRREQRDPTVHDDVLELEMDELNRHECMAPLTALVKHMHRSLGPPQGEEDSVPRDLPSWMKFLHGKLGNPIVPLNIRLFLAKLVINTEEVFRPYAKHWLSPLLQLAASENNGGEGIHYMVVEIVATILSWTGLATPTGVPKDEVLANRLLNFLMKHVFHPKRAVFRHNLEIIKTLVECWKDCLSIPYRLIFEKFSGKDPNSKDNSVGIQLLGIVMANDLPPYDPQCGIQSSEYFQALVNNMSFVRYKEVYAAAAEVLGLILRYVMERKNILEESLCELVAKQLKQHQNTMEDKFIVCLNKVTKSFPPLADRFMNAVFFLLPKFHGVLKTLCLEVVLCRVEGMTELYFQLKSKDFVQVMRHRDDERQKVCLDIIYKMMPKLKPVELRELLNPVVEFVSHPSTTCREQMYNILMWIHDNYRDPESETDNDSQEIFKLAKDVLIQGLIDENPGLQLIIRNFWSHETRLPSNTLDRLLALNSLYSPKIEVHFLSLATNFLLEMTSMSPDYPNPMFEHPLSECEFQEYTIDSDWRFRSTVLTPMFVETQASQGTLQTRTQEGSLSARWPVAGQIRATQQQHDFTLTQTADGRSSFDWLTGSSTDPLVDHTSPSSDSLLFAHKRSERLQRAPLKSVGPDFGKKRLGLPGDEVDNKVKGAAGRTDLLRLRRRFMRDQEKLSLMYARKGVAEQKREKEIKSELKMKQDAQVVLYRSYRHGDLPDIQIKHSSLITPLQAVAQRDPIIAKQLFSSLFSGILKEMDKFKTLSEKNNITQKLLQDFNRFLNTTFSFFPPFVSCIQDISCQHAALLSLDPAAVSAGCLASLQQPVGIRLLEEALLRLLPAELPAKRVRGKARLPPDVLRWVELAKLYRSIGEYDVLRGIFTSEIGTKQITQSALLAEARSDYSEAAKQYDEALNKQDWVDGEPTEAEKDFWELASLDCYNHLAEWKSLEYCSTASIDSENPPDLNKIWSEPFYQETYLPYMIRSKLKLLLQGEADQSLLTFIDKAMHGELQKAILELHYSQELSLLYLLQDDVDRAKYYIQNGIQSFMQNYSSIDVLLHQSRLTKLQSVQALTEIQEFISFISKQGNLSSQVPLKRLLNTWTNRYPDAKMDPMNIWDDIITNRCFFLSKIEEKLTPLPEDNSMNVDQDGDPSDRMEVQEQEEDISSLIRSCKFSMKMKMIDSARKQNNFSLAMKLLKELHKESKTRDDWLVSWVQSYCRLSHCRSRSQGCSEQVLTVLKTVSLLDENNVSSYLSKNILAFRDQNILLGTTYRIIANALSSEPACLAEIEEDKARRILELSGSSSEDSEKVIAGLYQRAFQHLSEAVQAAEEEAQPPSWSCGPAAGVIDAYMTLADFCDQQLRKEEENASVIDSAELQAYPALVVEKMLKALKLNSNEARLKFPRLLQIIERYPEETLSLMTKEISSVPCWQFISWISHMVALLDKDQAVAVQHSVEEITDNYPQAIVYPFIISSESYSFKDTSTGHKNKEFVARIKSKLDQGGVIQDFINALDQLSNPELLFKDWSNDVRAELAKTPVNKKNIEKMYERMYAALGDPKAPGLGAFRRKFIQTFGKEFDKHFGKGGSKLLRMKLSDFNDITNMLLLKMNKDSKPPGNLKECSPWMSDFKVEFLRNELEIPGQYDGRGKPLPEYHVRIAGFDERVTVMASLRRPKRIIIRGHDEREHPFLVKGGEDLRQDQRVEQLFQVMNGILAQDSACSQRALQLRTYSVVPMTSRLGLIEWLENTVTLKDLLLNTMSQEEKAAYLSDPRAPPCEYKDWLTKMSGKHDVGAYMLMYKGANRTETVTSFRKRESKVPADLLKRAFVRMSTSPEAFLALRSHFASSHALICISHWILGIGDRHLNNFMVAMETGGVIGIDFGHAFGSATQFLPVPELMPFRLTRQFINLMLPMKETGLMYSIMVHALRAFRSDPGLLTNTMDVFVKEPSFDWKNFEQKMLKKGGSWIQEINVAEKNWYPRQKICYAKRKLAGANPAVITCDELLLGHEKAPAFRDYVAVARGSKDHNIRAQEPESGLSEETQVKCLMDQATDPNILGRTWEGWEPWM

[16] = Toxicity in NOD-SCID mouse xenografted with human Granta-519 cells assessed as reticulocytes count at 5 mg/kg, po qd for 3 days and 4 days off intermittent dosing for 3 cycles co-administered with PARP inhibitor, niraparib from day 3 to day 6 in each cycle and measured on day 21; format: organism-based; details: in vivo, 504 h, time 21 day
[17] = target: T1, Serine/threonine-protein kinase ATR (Homo sapiens, UniProt Q13535); experiment: Inhibition of ATR in human HeLa S3 cells assessed as decrease in CHK1 phosphorylation at Ser345 residue pretreated for 20 mins followed by gemcitabine stimulation for 3.5 to 4 hrs by AlphaScreen SurFire assay; format: cell-based
[18] = Toxicity in BALB/c mouse assessed as depletion of erythroid lineage by measuring increase in myeloid to erythroid ratio in bone marrow at 10 mg/kg, po qd for 3 days; format: organism-based; details: in vivo, 72 h, time 3 day
[19] = Toxicity in BALB/c mouse assessed as mature red blood cells at 10 mg/kg, po qd for 3 days; format: organism-based; details: in vivo, 72 h, time 3 day
[20] = Clearance in CD-1 mouse at 1 mg/kg, iv formulated as a solution in 10% PG:18% PEG400 in water or 5% NMP:95% (10% VitE TPGS in water) measured for 24 hrs by reverse phase liquid chromatography coupled to mass spectrometry; format: ADME, organism-based; details: in vivo
[21] = Toxicity in NOD-SCID mouse xenografted with human Granta-519 cells assessed as reduction in early stage erythroblasts in bone marrow at 10 mg/kg, po qd for 1 day co-administered with PARP inhibitor, niraparib by flow cytometry; format: organism-based; details: in vivo, 24 h
[22] = target: Serine/threonine-protein kinase mTOR (Homo sapiens, UniProt P42345); experiment: Inhibition of mTOR in human Jurkat cell lysates at 0.03 to 0.3 uM in presence of biotinylated ADP by KiNativ profiling based mass spectrometry; format: subcellular; details: dose 0.03-0.3 µM
[23] = Clearance in monkey liver microsomes at 1 uM in presence of NADPH by ESI/LC-MS/MS analysis; format: ADME, Macaca mulatta, Microsome; details: rhesus monkey, read-out: CLH
[24] = Toxicity in NOD-SCID mouse xenografted with human Granta-519 cells assessed as reticulocytes count at 5 mg/kg, po qd for 3 days and 4 days off intermittent dosing for 3 cycles co-administered with PARP inhibitor, niraparib and measured on day 21; format: organism-based; details: in vivo, 504 h, time 21 day
[25] = target: T1, Serine/threonine-protein kinase ATR; experiment: Inhibition of ATR in human Jurkat cell lysates at 0.003 to 0.3 uM in presence of biotinylated ADP by KiNativ profiling based mass spectrometry; format: subcellular; details: dose 0.003-0.3 µM
[26] = Clearance in Beagle dog at 0.5 mg/kg, iv formulated as a solution in 10% PG:18% PEG400 in water or 5% NMP:95% (10% VitE TPGS in water) measured for 24 hrs by reverse phase liquid chromatography coupled to mass spectrometry; format: ADME, organism-based, Canis lupus familiaris; details: in vivo
[27] = Toxicity in BALB/c mouse assessed as early stage erythroblasts in bone marrow at 10 mg/kg, po qd for 3 days and 4 days off intermittent dosing for 4 cycles by flow cytometry; format: organism-based; details: in vivo, 672 h, time 28 day
[28] = Oral bioavailability in CD-1 mouse at 20 mg/kg formulated as suspension in 0.5% methocel and 0.02% SLS in 50 mM citrate buffer measured for 24 hrs by reverse phase liquid chromatography coupled to mass spectrometry; format: ADME, organism-based; details: in vivo
[29] = Toxicity in BALB/c mouse assessed as morphological changes in myeloid lineage cells in bone marrow at 10 mg/kg, po qd for 3 days; format: organism-based; details: in vivo, 72 h, time 3 day
[30] = Toxicity in NOD-SCID mouse xenografted with human Granta-519 cells assessed as reduction in late stage erythroblasts at 10 mg/kg, po qd for 1 day by flow cytometry; format: organism-based; details: in vivo, 24 h

- inhibition [1]: Active
- CLH [3]: 3.6 µL/min
- microsomal CLint at 1 µM [7]: 97 µL/min/mg
- hepatocyte CLint at 1 µM [11]: 1.5 µL/min/1e6 cells
- inhibition [15]: Active
- IC50 [17]: 0.9 nM
- clearance [20]: 1.2 mL/min/kg
- inhibition [22]: Active
- microsomal CLint at 1 µM [23]: 26 µL/min/mg
- inhibition [25]: Active
- clearance [26]: 10.1 mL/min/kg
- bioavailability [28]: 72%
SMILES: C[C@@H]1COCCN1c1cc([C@]2(O)C[C@H]3CC[C@@H](C2)O3)c2cnn(-c3cc[nH]n3)c2n1 [CAMONSERTIB]
- Activity [2]: Non-Toxic
- Activity [4]: Toxic
- Activity (Granta-519): Active
- Activity [5]: Non-Toxic
- Activity [6]: Non-Toxic
- Activity [8]: Toxic
- Activity [9]: Non-Toxic
- Activity [10]: Non-Toxic
- Activity [12]: Non-Toxic
- Activity [13]: Non-Toxic
- Activity [14]: Non-Toxic
- Activity [16]: Non-Toxic
- Activity [18]: Toxic
- Activity [19]: Non-Toxic
- Activity [21]: Toxic
- Activity [24]: Non-Toxic
- Activity [27]: Non-Toxic
- Activity [29]: Non-Toxic
- Activity [30]: Toxic
